Source: publication PMC3382171 (PLoS ONE, 2012)

Tests used:
Test in all cases: biochemical
Details in all cases: read-out: Upstate KSS % inhibition at 1uM
MKK7beta = target: T1, MKK7beta (Homo sapiens, UniProt O14733)
T1 construct: gene MAP2K7; isoform beta
Method: (§1) In these selectivity assays the concentration of ATP was set to the Km value of ATP for each kinase tested to allow for a relative potency comparison between the various kinases. The compounds were tested at 1 µM final concentration. […] (A) Kinase selectivity screen (KSS) performed at Upstate Biotechnology. […] (B) KSS performed at University of Dundee (Division of Signal Transduction Therapy). […] (PDF) Click here for additional data file.

PKCgamma = target: T2, PKCgamma (Homo sapiens, UniProt P05129)
T2 construct: gene PRKCG
Method: as §1

CaMKIV = target: T3, CaMKIV (Homo sapiens, UniProt Q16566)
T3 construct: gene CAMK4
Method: as §1

IRAK4 = IRAK4 (Homo sapiens, UniProt Q9NWZ3)
Chain of IRAK4 (Q9NWZ3 whole entry): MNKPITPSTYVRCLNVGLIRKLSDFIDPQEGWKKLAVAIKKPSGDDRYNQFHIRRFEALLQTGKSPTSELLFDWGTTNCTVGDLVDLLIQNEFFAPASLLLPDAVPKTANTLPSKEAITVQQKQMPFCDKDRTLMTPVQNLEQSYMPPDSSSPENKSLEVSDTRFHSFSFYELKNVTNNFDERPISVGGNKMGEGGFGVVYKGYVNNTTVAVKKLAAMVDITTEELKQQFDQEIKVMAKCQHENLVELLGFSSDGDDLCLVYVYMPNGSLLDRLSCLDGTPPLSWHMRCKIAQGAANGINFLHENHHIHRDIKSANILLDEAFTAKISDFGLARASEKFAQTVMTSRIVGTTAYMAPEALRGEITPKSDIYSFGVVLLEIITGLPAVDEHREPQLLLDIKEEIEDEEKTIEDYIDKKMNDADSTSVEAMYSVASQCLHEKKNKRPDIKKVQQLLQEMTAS
Method: as §1

RIPK2 = RIPK2 (Homo sapiens, UniProt O43353)
Method: as §1

PI3Kg = target: T4, PI3Kg (Homo sapiens, UniProt P48736)
T4 construct: gene PIK3CG
Method: as §1

PKCmu = target: T5, PKCmu (Homo sapiens, UniProt Q15139)
T5 construct: gene PRKD1
Method: as §1

PKCiota = target: T6, PKCiota (Homo sapiens, UniProt P41743)
T6 construct: gene PRKCI
T6 sequence (P41743 whole entry): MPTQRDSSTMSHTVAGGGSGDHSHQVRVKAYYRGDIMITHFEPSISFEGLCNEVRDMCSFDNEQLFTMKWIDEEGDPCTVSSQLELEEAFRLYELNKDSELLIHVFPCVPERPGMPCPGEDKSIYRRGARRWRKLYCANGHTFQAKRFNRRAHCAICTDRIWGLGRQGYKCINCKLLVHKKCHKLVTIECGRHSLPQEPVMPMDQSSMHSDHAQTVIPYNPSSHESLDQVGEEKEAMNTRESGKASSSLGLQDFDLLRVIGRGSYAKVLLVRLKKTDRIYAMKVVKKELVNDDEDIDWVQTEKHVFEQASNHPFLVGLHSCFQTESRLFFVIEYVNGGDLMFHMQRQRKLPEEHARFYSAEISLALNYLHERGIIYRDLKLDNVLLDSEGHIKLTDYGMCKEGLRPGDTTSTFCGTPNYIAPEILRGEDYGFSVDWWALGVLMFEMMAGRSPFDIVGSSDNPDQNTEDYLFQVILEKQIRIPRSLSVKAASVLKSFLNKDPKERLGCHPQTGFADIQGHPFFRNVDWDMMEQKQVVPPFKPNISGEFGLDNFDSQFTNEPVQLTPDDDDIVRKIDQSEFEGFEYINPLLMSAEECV
Method: as §1

PDGFRbeta = target: T7, PDGFRbeta (Homo sapiens, UniProt P09619)
T7 construct: gene PDGFRB
Method: as §1

LKB1 = target: T8, LKB1 (Homo sapiens, UniProt Q15831)
T8 construct: gene STK11
Method: as §1

LIMK1 = LIMK1 (Homo sapiens, UniProt P53667)
Method: as §1

JNK1alpha1 = target: T9, JNK1alpha1 (Homo sapiens, UniProt P45983)
T9 construct: gene MAPK8; isoform alpha1
Method: as §1

PASK = PASK (Homo sapiens, UniProt Q96RG2)
Chain of PASK (Q96RG2 whole entry): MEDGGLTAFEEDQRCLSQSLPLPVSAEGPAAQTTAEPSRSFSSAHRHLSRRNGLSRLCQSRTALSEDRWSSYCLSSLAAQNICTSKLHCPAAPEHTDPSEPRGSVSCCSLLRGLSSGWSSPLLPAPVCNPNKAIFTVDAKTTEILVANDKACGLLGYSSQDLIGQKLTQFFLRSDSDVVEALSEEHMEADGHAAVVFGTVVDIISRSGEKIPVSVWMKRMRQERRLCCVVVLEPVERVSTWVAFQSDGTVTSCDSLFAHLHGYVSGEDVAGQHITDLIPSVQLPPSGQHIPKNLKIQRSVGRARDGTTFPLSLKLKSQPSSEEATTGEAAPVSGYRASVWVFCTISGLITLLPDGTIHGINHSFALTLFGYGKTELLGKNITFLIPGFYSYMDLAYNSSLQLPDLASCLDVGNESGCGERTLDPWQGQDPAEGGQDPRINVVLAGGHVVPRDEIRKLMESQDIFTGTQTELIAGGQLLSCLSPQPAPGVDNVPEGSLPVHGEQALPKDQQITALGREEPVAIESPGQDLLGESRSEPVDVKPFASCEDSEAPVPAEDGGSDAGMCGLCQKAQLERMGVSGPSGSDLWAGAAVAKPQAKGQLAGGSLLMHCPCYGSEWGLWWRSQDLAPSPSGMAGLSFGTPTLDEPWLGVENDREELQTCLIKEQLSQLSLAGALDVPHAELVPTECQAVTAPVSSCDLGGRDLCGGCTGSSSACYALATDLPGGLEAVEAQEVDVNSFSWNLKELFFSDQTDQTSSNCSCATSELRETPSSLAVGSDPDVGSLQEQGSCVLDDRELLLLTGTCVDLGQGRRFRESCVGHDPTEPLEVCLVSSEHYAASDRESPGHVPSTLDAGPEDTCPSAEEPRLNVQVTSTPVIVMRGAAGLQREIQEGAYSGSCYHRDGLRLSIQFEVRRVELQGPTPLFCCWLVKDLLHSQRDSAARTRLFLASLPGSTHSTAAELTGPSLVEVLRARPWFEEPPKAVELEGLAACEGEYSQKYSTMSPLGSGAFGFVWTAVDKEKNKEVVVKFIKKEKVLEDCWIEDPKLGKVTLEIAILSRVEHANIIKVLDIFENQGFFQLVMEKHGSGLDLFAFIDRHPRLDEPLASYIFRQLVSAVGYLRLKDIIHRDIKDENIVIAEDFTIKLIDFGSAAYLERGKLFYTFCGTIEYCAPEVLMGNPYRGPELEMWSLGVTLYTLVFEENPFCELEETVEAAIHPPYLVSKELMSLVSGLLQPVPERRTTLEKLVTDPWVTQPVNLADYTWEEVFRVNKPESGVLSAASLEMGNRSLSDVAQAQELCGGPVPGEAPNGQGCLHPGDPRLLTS
Method: as §1

Snk = target: T10, Snk (Homo sapiens, UniProt Q9NYY3)
T10 construct: gene PLK2
T10 sequence (Q9NYY3 whole entry): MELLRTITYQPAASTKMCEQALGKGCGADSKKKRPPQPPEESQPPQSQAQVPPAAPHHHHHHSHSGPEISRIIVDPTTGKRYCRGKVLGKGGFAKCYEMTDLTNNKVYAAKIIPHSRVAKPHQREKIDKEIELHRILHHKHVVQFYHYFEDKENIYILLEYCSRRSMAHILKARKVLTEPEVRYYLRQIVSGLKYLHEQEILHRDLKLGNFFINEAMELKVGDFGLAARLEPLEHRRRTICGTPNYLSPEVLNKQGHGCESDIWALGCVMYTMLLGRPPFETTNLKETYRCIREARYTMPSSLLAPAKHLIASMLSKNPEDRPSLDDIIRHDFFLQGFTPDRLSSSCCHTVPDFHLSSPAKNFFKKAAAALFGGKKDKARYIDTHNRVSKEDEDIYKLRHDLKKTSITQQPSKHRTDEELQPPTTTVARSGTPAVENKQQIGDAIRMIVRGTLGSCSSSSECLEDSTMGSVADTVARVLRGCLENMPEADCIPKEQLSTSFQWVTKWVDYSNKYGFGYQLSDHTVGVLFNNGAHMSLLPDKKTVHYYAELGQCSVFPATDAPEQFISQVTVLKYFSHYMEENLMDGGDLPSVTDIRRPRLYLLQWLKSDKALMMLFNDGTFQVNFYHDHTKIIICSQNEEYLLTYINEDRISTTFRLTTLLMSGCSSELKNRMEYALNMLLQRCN
Method: as §1

NEK6 = NEK6 (Homo sapiens, UniProt Q9HC98)
Chain of NEK6 (Q9HC98 whole entry): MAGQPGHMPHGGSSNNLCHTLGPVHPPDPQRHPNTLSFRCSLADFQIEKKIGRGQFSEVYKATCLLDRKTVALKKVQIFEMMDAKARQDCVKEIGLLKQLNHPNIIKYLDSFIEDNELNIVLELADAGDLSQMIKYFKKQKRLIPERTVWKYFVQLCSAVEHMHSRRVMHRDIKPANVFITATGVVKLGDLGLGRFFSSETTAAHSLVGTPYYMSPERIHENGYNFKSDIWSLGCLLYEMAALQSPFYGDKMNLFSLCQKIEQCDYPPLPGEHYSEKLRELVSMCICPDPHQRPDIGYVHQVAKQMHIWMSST
Method: as §1

TAK1 = target: T11, TAK1 (Homo sapiens, UniProt O43318)
T11 construct: gene MAP3K7
T11 sequence (O43318 whole entry): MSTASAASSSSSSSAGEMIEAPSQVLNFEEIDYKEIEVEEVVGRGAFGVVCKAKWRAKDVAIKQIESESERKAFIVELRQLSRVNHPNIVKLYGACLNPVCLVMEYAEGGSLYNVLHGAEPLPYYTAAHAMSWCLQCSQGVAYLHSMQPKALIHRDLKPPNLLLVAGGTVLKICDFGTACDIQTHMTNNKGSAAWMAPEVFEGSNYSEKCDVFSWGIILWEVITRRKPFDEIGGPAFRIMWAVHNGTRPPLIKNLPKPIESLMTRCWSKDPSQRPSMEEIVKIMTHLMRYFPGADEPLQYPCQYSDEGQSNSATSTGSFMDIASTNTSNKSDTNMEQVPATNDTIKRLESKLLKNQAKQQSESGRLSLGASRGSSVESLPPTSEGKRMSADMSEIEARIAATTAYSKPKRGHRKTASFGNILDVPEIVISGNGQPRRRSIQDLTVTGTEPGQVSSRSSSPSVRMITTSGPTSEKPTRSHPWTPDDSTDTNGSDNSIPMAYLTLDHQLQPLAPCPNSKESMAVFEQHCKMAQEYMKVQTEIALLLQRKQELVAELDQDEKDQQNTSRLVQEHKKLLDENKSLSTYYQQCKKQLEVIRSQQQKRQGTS
Method: as §1

MSK1 = target: T12, MSK1 (Homo sapiens, UniProt O75582)
T12 construct: gene RPS6KA5
Method: as §1

JNK2alpha2 = target: T13, JNK2alpha2 (Homo sapiens, UniProt P45984)
T13 construct: gene MAPK9; isoform alpha2
Method: as §1

PAK4 = PAK4 (Homo sapiens, UniProt O96013)
Method: as §1

PKCdelta = target: T14, PKCdelta (Homo sapiens, UniProt Q05655)
T14 construct: gene PRKCD
Method: as §1

PKG1alpha = target: T15, PKG1alpha (Homo sapiens, UniProt Q13976)
T15 construct: gene PRKG1; isoform alpha
Method: as §1

PKCbeta = target: T16, PKCbeta (Homo sapiens, UniProt P05771)
T16 construct: gene PRKCB
Method: as §1

Aurora-A = target: T17, Aurora-A (Homo sapiens, UniProt O14965)
T17 construct: gene AURKA
Method: as §1

BTK = BTK (Homo sapiens, UniProt Q06187)
Method: as §1

RSK2 = target: T18, RSK2 (Homo sapiens, UniProt P51812)
T18 construct: gene RPS6KA3
Method: as §1

CDK3/cyclinE = CDK3/cyclinE (Homo sapiens, UniProt Q00526)
Method: as §1

Rsk3 = target: T19, Rsk3 (Homo sapiens, UniProt Q15349)
T19 construct: gene RPS6KA2
Method: as §1

PLK3 = PLK3 (Homo sapiens, UniProt Q9H4B4)
Method: as §1

Lyn = Lyn (Homo sapiens, UniProt P07948)
Chain of Lyn (P07948 whole entry): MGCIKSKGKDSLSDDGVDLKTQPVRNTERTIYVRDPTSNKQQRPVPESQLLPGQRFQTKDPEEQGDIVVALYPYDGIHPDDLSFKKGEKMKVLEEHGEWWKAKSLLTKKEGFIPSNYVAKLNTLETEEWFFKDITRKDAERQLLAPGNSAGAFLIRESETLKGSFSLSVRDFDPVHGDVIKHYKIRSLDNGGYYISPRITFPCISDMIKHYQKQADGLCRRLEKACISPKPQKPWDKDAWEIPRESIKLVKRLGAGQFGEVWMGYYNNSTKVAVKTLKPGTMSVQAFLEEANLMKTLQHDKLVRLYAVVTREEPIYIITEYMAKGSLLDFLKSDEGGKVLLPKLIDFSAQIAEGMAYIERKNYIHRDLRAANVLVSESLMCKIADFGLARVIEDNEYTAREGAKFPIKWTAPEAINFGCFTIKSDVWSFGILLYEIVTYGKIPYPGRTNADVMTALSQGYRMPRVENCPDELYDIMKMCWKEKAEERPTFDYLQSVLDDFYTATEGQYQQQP
Method: as §1

Rsk1 = target: T20, Rsk1 (Homo sapiens, UniProt Q15418)
T20 construct: gene RPS6KA1
Method: as §1

CHK2 = target: T21, CHK2 (Homo sapiens, UniProt O96017)
T21 construct: gene CHEK2
Method: as §1

PAR-1Balpha = target: T22, PAR-1Balpha (Homo sapiens, UniProt Q7KZI7)
T22 construct: gene MARK2
Method: as §1

Fes = Fes (Homo sapiens, UniProt P07332)
Method: as §1

PKBbeta = target: T23, PKBbeta (Homo sapiens, UniProt P31751)
T23 construct: gene AKT2
Method: as §1

T1 sequence (O14733 whole entry, canonical isoform): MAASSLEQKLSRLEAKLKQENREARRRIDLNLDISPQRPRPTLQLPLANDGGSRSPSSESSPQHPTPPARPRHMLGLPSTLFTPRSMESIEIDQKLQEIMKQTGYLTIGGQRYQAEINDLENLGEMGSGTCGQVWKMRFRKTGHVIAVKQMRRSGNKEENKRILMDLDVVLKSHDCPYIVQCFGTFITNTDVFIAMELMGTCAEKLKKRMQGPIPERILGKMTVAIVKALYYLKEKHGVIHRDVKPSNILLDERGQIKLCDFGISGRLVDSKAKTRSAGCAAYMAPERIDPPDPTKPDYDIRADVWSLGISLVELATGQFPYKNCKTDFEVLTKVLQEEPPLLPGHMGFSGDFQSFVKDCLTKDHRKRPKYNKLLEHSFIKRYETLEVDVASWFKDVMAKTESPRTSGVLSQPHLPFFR

inhibition at 1 µM (MKK7beta): -2% | inhibition at 1 µM (PKCgamma): 5% | inhibition at 1 µM (CaMKIV): -4% | inhibition at 1 µM (IRAK4): 11% | inhibition at 1 µM (RIPK2): 3% | inhibition at 1 µM (PI3Kg): 1% | inhibition at 1 µM (PKCmu): 5% | inhibition at 1 µM (PKCiota): 0% | inhibition at 1 µM (PDGFRbeta): -27% | inhibition at 1 µM (LKB1): -10% | inhibition at 1 µM (LIMK1): -7% | inhibition at 1 µM (JNK1alpha1): 0% | inhibition at 1 µM (PASK): -13% | inhibition at 1 µM (Snk): -11% | inhibition at 1 µM (NEK6): -14% | inhibition at 1 µM (TAK1): -7% | inhibition at 1 µM (MSK1): -5% | inhibition at 1 µM (JNK2alpha2): -2% | inhibition at 1 µM (PAK4): 1% | inhibition at 1 µM (PKCdelta): 10% | inhibition at 1 µM (PKG1alpha): 3% | inhibition at 1 µM (PKCbeta): 0% | inhibition at 1 µM (Aurora-A): -7% | inhibition at 1 µM (BTK): -13% | inhibition at 1 µM (RSK2): -22% | inhibition at 1 µM (CDK3/cyclinE): 5% | inhibition at 1 µM (Rsk3): -3% | inhibition at 1 µM (PLK3): -7% | inhibition at 1 µM (Lyn): 2% | inhibition at 1 µM (Rsk1): -11% | inhibition at 1 µM (CHK2): 0% | inhibition at 1 µM (PAR-1Balpha): 17% | inhibition at 1 µM (Fes): -61% | inhibition at 1 µM (PKBbeta): -6%
SMILES: OCCn1cc(-c2cnc3nnn(Cc4ccc5ncccc5c4)c3n2)cn1 [METi, PF-04217903]
